For the assay, the system named is MIA PaCa-2 cells. Description: Cellular viability assay (Cell Titer Fluor). It counts as cell-based. The note with it: Homo sapiens, 72 hours incubation. How it is done: Cell viability were performed using the Cell Titer Fluor™ Assays (Promega G6080). MIA PaCa-2 cells are grown in DMEM media with 10% FBS, 1% Pen/Strep/Amphotericin B. Cells are trypsinized and counted using the Nexcelom cellometer. 5,000 cells/100 μl are plated per well in Greiner black/clear 96-well plates. Cells should be within 10 passages of stock vial for use in workflow. Three distinct lineages of these cells are cultured in parallel for multiple passages and 5 full plates of each lineage are seeded for one run. Small molecule compounds are provided as 100 mM stock solutions in DMSO. Dilution series plates are prepared using 1:3 dilution to achieve a 7 point concentration on a half log scale. After addition of compounds, cells are incubated 37° C., 5% CO2 for 72 hours.
For each test compound condition, triplicate technical replicates are used. For each reference compound, duplicate technical replicates are used. At the end of the 72-hour incubation, spent media is discarded. Then, 100 μl of GF-AFC diluted in DMEM (serum and phenol red-free) is added at 1:2000 concentration (5 μl/10 ml). Cells are incubated with reaction buffer for 1 h at 37° C. Fluorescence is then read on the plate reader with excitation wavelength of 390 nm and emission wavelength of 505 nm. All raw data are analyzed on Microsoft Excel 2010 and normalized to the DMSO vehicle control. Relative results are copied into GraphPad Prism for non-linear regression analysis and determination of IC50 and other dose curve parameters (min, max, Hill slope, etc.) using the log (inhibitor) vs. response equation. Values are as follows: A represents an IC50 of <[…], B represents an IC50 of 1 mM to 10 mM, C represents an IC50 of >10 mM.

Consider 49 compounds from patent US11091447B2, “UBE2K modulators and methods for their use” (Berg LLC, priority 2020, dated 2021).

As usually defined, the IC50 is the concentration needed to halve the response being measured. A low value points to greater potency.

Compound `N#Cc1ccc(N2CCCC2)c(C(=O)NCc2cc(-c3cccs3)[nH]n2)c1` [Compound 84] gave an IC50 (MIA PaCa-2, 72 h) of 1000 to 10000 nM. As to `N#Cc1ccc(N2CCCC(F)(F)C2)c(C(=O)NCc2cc(-c3cccs3)[nH]n2)c1` [Compound 85], the IC50 (MIA PaCa-2, 72 h) is < 1000 nM. For `O=C(NCc1n[nH]c(-c2cccs2)n1)c1nccnc1N1CC(F)(F)C1` [Compound 86], the IC50 (MIA PaCa-2, 72 h) was > 10000 nM. `O=C(NCc1n[nH]c(-c2cccs2)n1)c1nccnc1N1CCC(F)(F)C1` [Compound 87, 3-(3,3-difluoropyrrolidin-1-yl)-N-((5-(thiophen-2-yl)-1H-1,2,4-triazol-3-yl)methyl) pyrazine-2-carboxamide]: the IC50 (MIA PaCa-2, 72 h) was > 10000 nM. With `O=C(NCc1cc(-c2cccs2)[nH]n1)c1cccnc1N1CC(F)(F)C1` [Compound 88], the IC50 (MIA PaCa-2, 72 h) was > 10000 nM.

As to `O=C(NCc1n[nH]c(-c2cccs2)n1)c1nccnc1N1CCC(F)(F)CC1` [Compound 89], where the note is “MIA PaCa-2, 72 h”, the IC50 was > 10000 nM. With `O=C(NCc1n[nH]c(-c2cccs2)n1)c1nccnc1N1CCCC(F)(F)C1` [Compound 90], the IC50 (MIA PaCa-2, 72 h) was > 10000 nM.

In the case of `O=C(NCc1cc(-c2cc(F)ccc2O)[nH]n1)c1cc(F)ccc1N1CCCCC1` [Compound 91], for the setting “MIA PaCa-2, 72 h”, the IC50 is < 1000 nM. Regarding `CCOc1ccc(F)cc1-c1cc(CNC(=O)c2cc(F)ccc2N2CCCC2)n[nH]1` [Compound 92], under “MIA PaCa-2, 72 h”, the IC50 is < 1000 nM. For `CC(C)Oc1ccc(F)cc1-c1cc(CNC(=O)c2cc(F)ccc2N2CCCCC2)n[nH]1` [Compound 93], the IC50 (MIA PaCa-2, 72 h) was < 1000 nM.

As to `O=C(NCc1cc(-c2cccs2)[nH]n1)c1cc(F)ccc1N1CCCC1` [Compound 94], the IC50 (MIA PaCa-2, 72 h) was < 1000 nM. With `Cc1ccc(N2CCCC(F)(F)C2)c(C(=O)NCc2cc(-c3cccs3)[nH]n2)c1` [Compound 96], the IC50 (MIA PaCa-2, 72 h) is < 1000 nM. Take `Cc1cccc(C(=O)NCc2cc(-c3cccs3)[nH]n2)c1N1CCC(F)(F)C1` [Compound 97]: under “MIA PaCa-2, 72 h”, the IC50 was 1000 to 10000 nM. Turning to `CC(C)Oc1ccc(F)cc1-c1cc(CNC(=O)c2cc(F)ccc2N2CCCC2)n[nH]1` [Compound 98], where the note is “MIA PaCa-2, 72 h”, the IC50 is < 1000 nM.

Take `CCOc1ccc(F)cc1-c1cc(CNC(=O)c2cc(F)ccc2N2CCCCC2)n[nH]1` [Compound 99]: where the note is “MIA PaCa-2, 72 h”, the IC50 was < 1000 nM. Same read-out and setting: next, `COc1ccccc1-c1cc(CNC(=O)c2cc(F)ccc2N2CCCCC2)n[nH]1` [Compound 100]: < 1000 nM. For `O=C(NCc1cc(-c2ccccc2O)[nH]n1)c1cc(F)ccc1N1CCCCC1` [Compound 101], where the note is “MIA PaCa-2, 72 h”, the IC50 was < 1000 nM.

In the case of `COc1ccccc1-c1cc(CNC(=O)c2ccccc2N2CCCCC2)n[nH]1` [Compound 102, N-((5-(2-methoxyphenyl)-1H-pyrazol-3-yl)methyl)-2-(piperidin-1-yl) benzamide], where the note is “MIA PaCa-2, 72 h”, the IC50 is < 1000 nM. As for `O=C(NCc1cc(-c2cccs2)[nH]n1)c1ccccc1N1CCCCCC1` [Compound 103], the IC50 (MIA PaCa-2, 72 h) is < 1000 nM. `COc1ccccc1-c1cc(CNC(=O)c2cc(F)ccc2N2CCCC2)n[nH]1` [Compound 104]: the IC50 (MIA PaCa-2, 72 h) is < 1000 nM. Regarding `COc1ccccc1-c1cc(CNC(=O)c2ccccc2N2CCCC2)n[nH]1` [Compound 105], the IC50 (MIA PaCa-2, 72 h) is < 1000 nM.

Consider `COc1ccc(F)cc1-c1cc(CNC(=O)c2cc(F)ccc2N2CCCCC2)n[nH]1` [Compound 110], for which the IC50 (MIA PaCa-2, 72 h) was < 1000 nM. The same measure, in the same setting: next, `COc1cccc(-c2cc(CNC(=O)c3ccccc3OC(F)(F)F)n[nH]2)c1OC` [Compound 114]: > 10000 nM; `CCCOc1ccc(F)cc1-c1cc(CNC(=O)c2ccccc2OC(F)(F)F)n[nH]1` [Compound 115]: > 10000 nM.

As for `CC(C)Oc1ccc(F)cc1-c1cc(CNC(=O)c2ccccc2OC(F)(F)F)n[nH]1` [Compound 116], the IC50 (MIA PaCa-2, 72 h) was > 10000 nM. Same read-out and setting: next, `COc1ccc(-c2cc(CNC(=O)c3ccccc3OC(F)(F)F)n[nH]2)c(OC)c1` [Compound 117]: > 10000 nM; `COc1ccccc1-c1nc(C2(NC(=O)c3ccccc3OC(F)F)CC2)n[nH]1` [Compound 118, 2-(difluoromethoxy)-N-(1-(5-(2-methoxyphenyl)-1H-1,2,4-triazol-3-yl)cyclopropyl) benzamide]: 1000 to 10000 nM. Where the note is “MIA PaCa-2, 72 h”, `COc1ccc(F)cc1-c1nc(CNC(=O)c2ccc3c(c2)OC(F)(F)O3)n[nH]1` [Compound 119] gave an IC50 of 1000 to 10000 nM. For the setting “MIA PaCa-2, 72 h”, `COc1ccccc1-c1nc(CNC(=O)c2ccc3c(c2)OC(F)(F)O3)n[nH]1` [Compound 120] came in with an IC50 of 1000 to 10000 nM. As for `COc1ccccc1-c1cc(S(=O)(=O)NC(=O)c2ccccc2OC(F)F)n[nH]1` [Compound 121, 2-(difluoromethoxy)-N-((5-(2-methoxyphenyl)-1H-pyrazol-3-yl)sulfonyl) benzamide], the IC50 (MIA PaCa-2, 72 h) was > 10000 nM. Regarding `COc1ccccc1-c1cc(S(=O)(=O)NC(=O)c2ccccc2OC(F)(F)F)n[nH]1` [Compound 122, N-[[5-(2-methoxyphenyl)-1H-pyrazol-3-yl]sulfonyl]-2-(trifluoromethoxy)benzamide], the 50% inhibitory concentration (IC50) (MIA PaCa-2, 72 h) was > 10000 nM.

Compound `COc1ccccc1-c1nc(S(=O)(=O)NC(=O)c2ccccc2OC(F)(F)F)n[nH]1` [Compound 123, N-((5-(2-methoxyphenyl)-1H-1,2,4-triazol-3-yl)sulfonyl)-2-(trifluoromethoxy) benzamide] came in with an IC50 (MIA PaCa-2, 72 h) of 1000 to 10000 nM. As for `COc1ccccc1-c1nc(S(=O)(=O)NC(=O)c2ccccc2OC(F)F)n[nH]1` [Compound 124, 2-(difluoromethoxy)-N-((5-(2-methoxyphenyl)-1H-1,2,4-triazol-3-yl)sulfonyl) benzamide], the IC50 (MIA PaCa-2, 72 h) is 1000 to 10000 nM. `COc1ccccc1-c1nc(CNC(=O)c2ccccc2OC(F)(F)F)n[nH]1` [Compound 125]: the IC50 (MIA PaCa-2, 72 h) is < 1000 nM.

Turning to `COc1ccc(F)cc1-c1nc(CNC(=O)c2ccccc2OC(F)(F)F)n[nH]1` [Compound 127, N-((5-(5-fluoro-2-methoxyphenyl)-1H-1,2,4-triazol-3-yl)methyl)-2-(trifluoromethoxy)benzamide], the IC50 is < 1000 nM.

As to `COc1ccc(F)cc1-c1nc(CNC(=O)c2ccccc2OC(F)F)n[nH]1` [Compound 128], the IC50 (MIA PaCa-2, 72 h) is < 1000 nM. Consider `O=C(NCc1n[nH]c(-c2cc(F)ccc2O)n1)c1ccccc1OC(F)F` [Compound 129], for which, under “MIA PaCa-2, 72 h”, the IC50 was < 1000 nM.

On to `O=C(NCc1n[nH]c(-c2cc(F)ccc2O)n1)c1ccccc1OC(F)(F)F` [Compound 130], for which, for the setting “MIA PaCa-2, 72 h”, the IC50 is < 1000 nM. As for `COc1ccccc1-c1nc(CNC(=O)c2cccc3c2OC(F)(F)O3)n[nH]1` [Compound 132], the IC50 (MIA PaCa-2, 72 h) is < 1000 nM. `COc1ccccc1-c1nc(CNC(=O)c2cc(F)ccc2OC(F)(F)F)n[nH]1` [Compound 134]: the IC50 (MIA PaCa-2, 72 h) was < 1000 nM. As for `COc1ccc(F)cc1-c1nc(CNC(=O)c2cccc(F)c2OC(F)F)n[nH]1` [Compound 135, 2-(difluoromethoxy)-3-fluoro-N-((5-(5-fluoro-2-methoxyphenyl)-1H-1,2,4-triazol-3-yl)methyl) benzamide], under “MIA PaCa-2, 72 h”, the IC50 is < 1000 nM. For the compound `COc1ccccc1-c1nc(CNC(=O)c2cccc(F)c2OC(F)F)n[nH]1` [Compound 136, 2-(difluoromethoxy)-3-fluoro-N-((5-(2-methoxyphenyl)-1H-1,2,4-triazol-3-yl)methyl) benzamide], the IC50 (MIA PaCa-2, 72 h) is < 1000 nM.

Regarding `COc1ccccc1-c1nc(CNC(=O)c2cc(F)ccc2OC(F)F)n[nH]1` [Compound 138, 2-(difluoromethoxy)-5-fluoro-N-((5-(2-methoxyphenyl)-1H-1,2,4-triazol-3-yl)methyl) benzamide], the IC50 (MIA PaCa-2, 72 h) is < 1000 nM.

In the case of `COc1ccc(F)cc1-c1nc(CNC(=O)c2cc(C#N)ccc2OC(F)F)n[nH]1` [Compound 139], for the setting “MIA PaCa-2, 72 h”, the IC50 is < 1000 nM. The same measure, in the same setting: next, `COc1ccccc1-c1nc(CNC(=O)c2cc(C#N)ccc2OC(F)F)n[nH]1` [Compound 140]: < 1000 nM; `COc1ccc(F)cc1-c1nc(CNC(=O)c2cccnc2OC(F)F)n[nH]1` [Compound 143, 2-(difluoromethoxy)-N-((5-(5-fluoro-2-methoxyphenyl)-1H-1,2,4-triazol-3-yl)methyl) nicotinamide]: < 1000 nM; `COc1ccccc1-c1nc(CNC(=O)c2cccnc2OC(F)F)n[nH]1` [Compound 144, 2-(difluoromethoxy)-N-((5-(2-methoxyphenyl)-1H-1,2,4-triazol-3-yl)methyl) nicotinamide]: < 1000 nM. On to `COc1ccc(F)cc1-c1nc(CNC(=O)c2cnccc2OC(F)F)n[nH]1` [Compound 147], for which, under “MIA PaCa-2, 72 h”, the IC50 lay in the range of 1000 to 10000 nM.

Where the note is “MIA PaCa-2, 72 h”, `COc1ccccc1-c1nc(CNC(=O)c2cnccc2OC(F)F)n[nH]1` [Compound 148] gave an IC50 of 1000 to 10000 nM.
